Test results published in ChEMBL document CHEMBL1149799, “Bioactive peroxides as potential therapeutic agents” (Eur J Med Chem, 2008).
Converted amounts (≈) assume the structure as drawn.

Tests used:
[1] = biological target: Protein kinase C alpha type (Homo sapiens) (UniProt P17252); assay: Agonist activity at protein kinase C alpha at 50 pg/mL; format: functional
[2] = biological target: Protein kinase C beta type (Homo sapiens) (UniProt P05771); assay: Agonist activity at protein kinase C beta-1 at 50 pg/mL; format: functional
[3] = biological target: Protein kinase C beta type (Homo sapiens) (UniProt P05771); assay: Agonist activity at protein kinase C beta2 at 50 pg/mL; format: functional
[4] = biological target: Protein kinase C delta type (Homo sapiens) (UniProt Q05655); assay: Agonist activity at protein kinase C delta at 50 pg/mL; format: functional
[5] = biological target: Protein kinase C epsilon type (Homo sapiens) (UniProt Q02156); assay: Agonist activity at protein kinase C epsilon at 50 pg/mL; format: functional
[6] = biological target: Protein kinase C gamma type (Homo sapiens, UniProt P05129); assay: Agonist activity at protein kinase C gamma at 50 pg/mL; format: functional
[7] = Cytotoxicity against human Fem-X cells; format: functional, cell-based
PBMC [8] = assay: Cytotoxicity against human PBMC cells; format: cell-based
HeLa = assay: Cytotoxicity against human HeLa cells; format: functional, cell-based
K562 [9] = assay: Cytotoxicity against human K562 cells; format: functional, cell-based
PBMC [10] = assay: Cytotoxicity against human PHA-activated PBMC cells; format: cell-based
P388 = assay: Cytotoxicity against mouse P388 cells at 0.5 ug/mL; format: functional
HCT-8 = assay: Cytotoxicity against human HCT8 cells at 10 ug/mL; format: functional
[11] = biological target: Prostaglandin G/H synthase 1 (Homo sapiens, UniProt P23219); assay: Inhibition of cyclooxygenase-1
[12] = biological target: Prostaglandin G/H synthase 2 (Homo sapiens, UniProt P35354); assay: Inhibition of cyclooxygenase-2
[13] = biological target: Sodium-dependent serotonin transporter (Homo sapiens, UniProt P31645); assay: Inhibition of serotonin transporter
[14] = biological target: Sodium-dependent dopamine transporter (Homo sapiens, UniProt Q01959); assay: Inhibition of dopamine uptake at DAT
[15] = Inhibition of gamma aminobutyric acid transporter
[16] = Inhibition of L-glutamate transporter
[17] = biological target: Sodium-dependent noradrenaline transporter (Homo sapiens, UniProt P23975); assay: Inhibition of noradrenaline transporter
[18] = Inhibition of human SKW3 cells adhesion to soluble ICAM1; format: functional, cell-based
K562 [19] = assay: Cytotoxicity against human K562 cells at 10 ug/mL; format: functional
Jurkat = assay: Cytotoxicity against human Jurkat cells at 10 ug/mL; format: functional
[20] = Cytotoxicity against human WM1341 cells at 10 ug/mL; format: functional
HL-60 = assay: Cytotoxicity against human HL60 cells at 10 ug/mL; format: functional
[21] = Cytotoxicity against human RPM18226 cells at 10 ug/mL; format: functional; settings: RPMI-8226
KB = assay: Cytotoxicity against human KB cells; format: functional, cell-based; settings: Homo sapiens, KB; read-out: ED50 (the source's name)
[22] = Cytotoxicity against human PLC/PRF/5 cells; format: functional; settings: read-out: ED50 (the source's name)

Chain of Protein kinase C beta type (Homo sapiens) (P05771 2-671 limits assumed): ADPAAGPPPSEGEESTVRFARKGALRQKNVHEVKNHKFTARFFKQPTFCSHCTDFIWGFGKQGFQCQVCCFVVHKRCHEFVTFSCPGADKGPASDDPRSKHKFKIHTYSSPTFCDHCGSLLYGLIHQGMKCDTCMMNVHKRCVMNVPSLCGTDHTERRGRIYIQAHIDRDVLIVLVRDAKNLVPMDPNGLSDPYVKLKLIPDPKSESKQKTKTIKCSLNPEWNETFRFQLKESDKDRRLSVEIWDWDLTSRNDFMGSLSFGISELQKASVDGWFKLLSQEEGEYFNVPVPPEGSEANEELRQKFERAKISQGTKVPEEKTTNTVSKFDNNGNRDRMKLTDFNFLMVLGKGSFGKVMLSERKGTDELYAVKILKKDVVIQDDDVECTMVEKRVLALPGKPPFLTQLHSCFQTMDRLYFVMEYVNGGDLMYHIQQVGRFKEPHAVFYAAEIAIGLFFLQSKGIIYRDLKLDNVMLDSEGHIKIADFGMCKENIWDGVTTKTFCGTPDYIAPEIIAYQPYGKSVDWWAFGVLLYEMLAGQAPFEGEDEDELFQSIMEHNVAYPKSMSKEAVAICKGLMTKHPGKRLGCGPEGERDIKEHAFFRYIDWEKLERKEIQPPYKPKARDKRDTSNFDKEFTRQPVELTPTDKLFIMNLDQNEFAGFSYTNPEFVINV
Chain of Sodium-dependent serotonin transporter (P31645 whole entry): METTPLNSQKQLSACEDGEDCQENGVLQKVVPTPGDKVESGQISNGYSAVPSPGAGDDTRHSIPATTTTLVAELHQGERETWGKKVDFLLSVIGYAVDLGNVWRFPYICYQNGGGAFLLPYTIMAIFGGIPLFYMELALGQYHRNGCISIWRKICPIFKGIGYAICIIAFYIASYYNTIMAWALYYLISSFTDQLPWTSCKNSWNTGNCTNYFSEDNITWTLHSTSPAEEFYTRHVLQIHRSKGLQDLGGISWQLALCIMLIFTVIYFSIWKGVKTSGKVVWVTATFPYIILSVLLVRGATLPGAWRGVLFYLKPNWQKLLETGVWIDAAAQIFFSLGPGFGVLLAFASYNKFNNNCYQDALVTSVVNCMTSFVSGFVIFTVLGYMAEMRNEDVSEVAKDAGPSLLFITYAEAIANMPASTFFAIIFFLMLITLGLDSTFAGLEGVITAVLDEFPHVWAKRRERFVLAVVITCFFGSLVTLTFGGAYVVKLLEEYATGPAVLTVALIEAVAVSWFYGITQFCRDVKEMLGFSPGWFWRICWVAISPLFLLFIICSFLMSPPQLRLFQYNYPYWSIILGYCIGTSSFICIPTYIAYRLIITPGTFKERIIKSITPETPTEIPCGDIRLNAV
Chain of Protein kinase C epsilon type (Homo sapiens) (Q02156 whole entry): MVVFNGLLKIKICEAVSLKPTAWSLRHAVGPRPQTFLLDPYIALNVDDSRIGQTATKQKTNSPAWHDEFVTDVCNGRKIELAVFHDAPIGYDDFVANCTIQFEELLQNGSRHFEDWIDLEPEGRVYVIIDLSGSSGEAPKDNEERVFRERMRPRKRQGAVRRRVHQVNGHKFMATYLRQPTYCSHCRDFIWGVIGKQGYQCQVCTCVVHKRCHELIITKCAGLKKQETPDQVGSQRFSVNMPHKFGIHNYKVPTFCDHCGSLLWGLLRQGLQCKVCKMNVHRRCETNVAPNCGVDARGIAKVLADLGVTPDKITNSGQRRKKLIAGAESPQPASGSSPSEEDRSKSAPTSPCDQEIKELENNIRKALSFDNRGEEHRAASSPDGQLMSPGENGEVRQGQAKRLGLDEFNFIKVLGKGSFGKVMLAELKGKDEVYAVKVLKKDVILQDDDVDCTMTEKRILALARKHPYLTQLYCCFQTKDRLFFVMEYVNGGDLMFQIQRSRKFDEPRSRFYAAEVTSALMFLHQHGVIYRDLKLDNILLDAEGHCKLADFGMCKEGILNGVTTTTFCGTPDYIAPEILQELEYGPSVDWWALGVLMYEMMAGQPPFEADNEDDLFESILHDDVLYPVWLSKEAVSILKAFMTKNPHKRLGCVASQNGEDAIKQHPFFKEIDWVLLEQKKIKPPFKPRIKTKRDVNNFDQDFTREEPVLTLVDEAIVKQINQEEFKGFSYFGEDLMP
Chain of Sodium-dependent noradrenaline transporter (P23975 whole entry): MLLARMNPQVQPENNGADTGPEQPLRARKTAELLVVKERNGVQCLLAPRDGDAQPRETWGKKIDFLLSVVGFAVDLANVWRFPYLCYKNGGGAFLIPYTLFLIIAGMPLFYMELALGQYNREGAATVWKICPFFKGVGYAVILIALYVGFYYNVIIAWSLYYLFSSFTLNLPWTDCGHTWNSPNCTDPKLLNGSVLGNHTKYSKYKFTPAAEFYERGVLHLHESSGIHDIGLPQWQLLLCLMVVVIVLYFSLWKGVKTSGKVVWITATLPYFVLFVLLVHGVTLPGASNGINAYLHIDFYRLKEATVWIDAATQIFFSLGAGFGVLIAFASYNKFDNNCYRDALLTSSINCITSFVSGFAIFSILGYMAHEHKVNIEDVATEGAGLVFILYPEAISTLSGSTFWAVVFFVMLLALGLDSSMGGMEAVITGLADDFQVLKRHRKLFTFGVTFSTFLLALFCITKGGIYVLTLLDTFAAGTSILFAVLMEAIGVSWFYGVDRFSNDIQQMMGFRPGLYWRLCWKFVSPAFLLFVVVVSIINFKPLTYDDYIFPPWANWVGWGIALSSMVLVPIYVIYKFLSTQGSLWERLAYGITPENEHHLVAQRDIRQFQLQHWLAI
Chain of Prostaglandin G/H synthase 1 (P23219 whole entry): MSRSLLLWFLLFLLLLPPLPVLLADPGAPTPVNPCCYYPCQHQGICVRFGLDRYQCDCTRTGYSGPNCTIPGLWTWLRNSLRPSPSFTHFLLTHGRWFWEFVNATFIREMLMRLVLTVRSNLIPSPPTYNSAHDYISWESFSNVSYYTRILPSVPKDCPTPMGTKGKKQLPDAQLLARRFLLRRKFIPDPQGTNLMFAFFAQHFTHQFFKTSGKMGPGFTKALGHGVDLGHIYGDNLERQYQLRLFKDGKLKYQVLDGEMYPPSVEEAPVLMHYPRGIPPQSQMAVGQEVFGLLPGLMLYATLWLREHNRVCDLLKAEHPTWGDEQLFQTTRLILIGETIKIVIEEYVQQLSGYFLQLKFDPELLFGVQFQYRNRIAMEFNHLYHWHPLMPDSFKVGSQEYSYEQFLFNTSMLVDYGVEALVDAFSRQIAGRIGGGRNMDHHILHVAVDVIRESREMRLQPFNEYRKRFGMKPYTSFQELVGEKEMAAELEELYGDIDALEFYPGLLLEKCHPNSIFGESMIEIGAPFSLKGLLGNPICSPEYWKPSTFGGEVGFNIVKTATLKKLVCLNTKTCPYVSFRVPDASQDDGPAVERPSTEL
Chain of Protein kinase C delta type (Homo sapiens) (Q05655 whole entry, looked up): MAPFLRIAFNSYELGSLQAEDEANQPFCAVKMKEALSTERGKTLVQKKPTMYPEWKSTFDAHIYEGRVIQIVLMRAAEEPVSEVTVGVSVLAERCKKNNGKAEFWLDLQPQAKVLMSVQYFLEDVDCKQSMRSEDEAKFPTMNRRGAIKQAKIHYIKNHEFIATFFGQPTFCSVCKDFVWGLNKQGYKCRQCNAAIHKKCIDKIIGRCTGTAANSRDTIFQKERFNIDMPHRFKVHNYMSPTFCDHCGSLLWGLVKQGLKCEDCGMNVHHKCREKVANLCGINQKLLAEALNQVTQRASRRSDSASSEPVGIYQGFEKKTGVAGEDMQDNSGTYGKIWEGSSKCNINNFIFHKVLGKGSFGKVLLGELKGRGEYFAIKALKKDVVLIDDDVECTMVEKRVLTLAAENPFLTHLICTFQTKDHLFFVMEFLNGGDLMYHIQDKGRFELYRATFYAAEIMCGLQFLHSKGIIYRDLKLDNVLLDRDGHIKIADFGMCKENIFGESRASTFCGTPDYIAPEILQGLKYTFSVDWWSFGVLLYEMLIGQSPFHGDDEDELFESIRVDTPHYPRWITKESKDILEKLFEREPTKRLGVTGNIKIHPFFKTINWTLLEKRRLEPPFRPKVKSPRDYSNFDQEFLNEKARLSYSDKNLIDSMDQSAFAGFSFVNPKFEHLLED

For `CC(CCCCCCCCc1ccccc1)C[C@]1(C)C[C@]2(C)OC(=O)C[C@@H]2OO1` (stereo partly drawn), the Activity [1] was 19%, the Activity [2] was 13% and the Activity [3] was 27%. The Activity [4] was 9%, the Activity [5] was 38% and the Activity [6] was 9%.
Work on `C=C1C(=O)O[C@H]2C1C[C@@H](OC(C)=O)[C@@](C)(O)[C@@]13C=C[C@@](C)(OO1)[C@H]23` (stereo partly drawn) [APRESSIN] yielded an IC50 [7] of 5.27 µg/mL (≈ 15.7 µM), an IC50 (PBMC [8]) of 15.9 µg/mL (≈ 47.2 µM) and an IC50 (HeLa) of 7.36 µg/mL (≈ 21.9 µM). For the same molecule, the IC50 (K562 [9]) was 4.44 µg/mL (≈ 13.2 µM) and the IC50 (PBMC [10]) was 8.78 µg/mL (≈ 26.1 µM).
Work on `CCCCCCCCCCCCCCCC[C@]1(C)C[C@](C)(CC(=O)O)OO1` yielded an inhibition at 0.5 µg/mL (P388) of 90% and an inhibition at 10 µg/mL (HCT-8) of 90%.
In the case of `C=C[C@@H]1[C@@H](O)C[C@@H]2[C@]3(CC[C@]4(C)[C@@H]([C@H](C)CCC(OO)C(=C)C)CC[C@@]24C)C[C@]13CCC(=O)OC` (stereo partly drawn), the IC50 [11] is reported as 43.7 µg and the IC50 [12] is reported as 4.7 µg.
With `CC(C)=CCC[C@]1(C)[C@@H](CC=C(C)C)C[C@@]2(CC=C(C)C)C(=O)[C@@](CC=C(C)C)(CC3=C[C@@H]4[C@@H](C(C)C)CC[C@@](C)(OO)[C@H]4CC3)C(=O)[C@]1(C(=O)C(C)C)C2=O` [HYDROPEROXYCADIFORIN] the IC50 [13] was 64.7 nM, the IC50 [14] was 64.7 nM and the IC50 [15] was 0.05 µg/mL (≈ 0.0647 µM). The IC50 [16] was 0.5 µg/mL (≈ 0.647 µM) and the IC50 [17] was 64.7 nM.
`Cc1ccc2c(c1O)C(=O)c1c(cc(O)c(C(=O)O)c1C)[C@]2(C)OO[C@@]1(C)c2cc(O[C@H]3O[C@@H](CO)[C@@H](O)[C@@H](O)[C@@H]3O)c(C(=O)O)c(C)c2C(=O)c2c1ccc(C)c2O` [ADXANTHROMYCIN A] gave an IC50 [18] of 18.8 µg/mL (≈ 23 µM).
Work on `CC(C)[C@@H](C)/C=C/[C@@H](C)[C@H]1CC[C@@H]2[C@]1(C)CC[C@H]1[C@]23C=C[C@]2(C[C@@H](O[C@@H]4O[C@H](CO)[C@@H](O)[C@H](O)[C@H]4O)CC[C@]12C)OO3` yielded an inhibition at 10 µg/mL (K562 [19]) of 10%, an inhibition at 10 µg/mL (Jurkat) of 10% and an inhibition at 10 µg/mL [20] of 10%. The inhibition at 10 µg/mL (HL-60) was 10% and the inhibition at 10 µg/mL [21] was 10%.
Molecule `CC(C)C(C)/C=C/C(C)[C@H]1CC[C@@H]2[C@]1(C)CC[C@H]1[C@]23C=C[C@]2(C[C@@H](O)CC[C@]12C)OO3` (stereo partly drawn) has an EC50 (KB) of 9.97 µg/mL (≈ 23.3 µM) and an EC50 [22] of 11 µg/mL (≈ 25.6 µM).
